Test results reported in ChEMBL document CHEMBL3351304, “Bioactive constituents from the green alga Caulerpa racemosa” (Bioorg Med Chem, 2015).

Columns and labels:
[1] = Cytotoxicity against human HL60 cells by SRB assay; type: functional, cell-based; conditions: HL-60
[2] = target: T1, Tyrosine-protein phosphatase non-receptor type 2 (Homo sapiens, UniProt P17706); assay: Inhibition of TC-PTP (unknown origin) using pNPP as substrate by spectrophotometry
T1 sequence (P17706 whole entry): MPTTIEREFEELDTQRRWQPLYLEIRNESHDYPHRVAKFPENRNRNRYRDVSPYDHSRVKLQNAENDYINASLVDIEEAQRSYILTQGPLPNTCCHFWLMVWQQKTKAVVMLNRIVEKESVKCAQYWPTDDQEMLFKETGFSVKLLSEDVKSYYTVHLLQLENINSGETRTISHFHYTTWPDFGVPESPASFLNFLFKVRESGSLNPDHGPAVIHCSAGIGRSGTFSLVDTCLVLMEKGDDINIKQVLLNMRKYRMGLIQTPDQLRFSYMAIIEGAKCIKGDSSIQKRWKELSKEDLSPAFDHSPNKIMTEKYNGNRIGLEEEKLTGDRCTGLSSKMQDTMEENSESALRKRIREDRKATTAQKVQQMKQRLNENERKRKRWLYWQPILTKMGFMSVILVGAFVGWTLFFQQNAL

[3] = target: T2, Tyrosine-protein phosphatase non-receptor type 11 (Homo sapiens) (UniProt Q06124); assay: Inhibition of SHP2 (unknown origin) using pNPP as substrate at 20 ug/ml by spectrophotometry
T2 sequence (whole entry): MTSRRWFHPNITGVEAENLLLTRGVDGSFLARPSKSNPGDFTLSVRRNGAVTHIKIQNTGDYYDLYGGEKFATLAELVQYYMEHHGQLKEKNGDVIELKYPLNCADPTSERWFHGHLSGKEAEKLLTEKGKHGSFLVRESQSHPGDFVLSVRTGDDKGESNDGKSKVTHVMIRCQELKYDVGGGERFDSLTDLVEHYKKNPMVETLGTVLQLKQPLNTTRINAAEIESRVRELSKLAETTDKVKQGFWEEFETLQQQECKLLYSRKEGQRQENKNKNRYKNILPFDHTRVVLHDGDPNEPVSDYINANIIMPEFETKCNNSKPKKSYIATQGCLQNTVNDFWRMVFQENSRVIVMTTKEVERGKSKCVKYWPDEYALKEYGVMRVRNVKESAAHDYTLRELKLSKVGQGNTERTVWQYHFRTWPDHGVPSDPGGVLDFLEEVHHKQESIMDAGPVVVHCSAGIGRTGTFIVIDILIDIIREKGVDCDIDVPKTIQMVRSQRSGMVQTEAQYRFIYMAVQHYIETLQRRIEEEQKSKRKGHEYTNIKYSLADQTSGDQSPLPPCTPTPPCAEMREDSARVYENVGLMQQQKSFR

[4] = target: T3, Tyrosine-protein phosphatase non-receptor type 6 (Homo sapiens, UniProt P29350); assay: Inhibition of SHP1 (unknown origin) using pNPP as substrate at 20 ug/ml by spectrophotometry
[5] = target: Receptor-type tyrosine-protein phosphatase F (Homo sapiens) (UniProt P10586); assay: Inhibition of LAR (unknown origin) using pNPP as substrate at 20 ug/ml by spectrophotometry
[6] = target: T4, M-phase inducer phosphatase 2 (Homo sapiens, UniProt P30305); assay: Inhibition of CDC25B (unknown origin) using pNPP as substrate by spectrophotometry
T4 sequence (P30305 whole entry): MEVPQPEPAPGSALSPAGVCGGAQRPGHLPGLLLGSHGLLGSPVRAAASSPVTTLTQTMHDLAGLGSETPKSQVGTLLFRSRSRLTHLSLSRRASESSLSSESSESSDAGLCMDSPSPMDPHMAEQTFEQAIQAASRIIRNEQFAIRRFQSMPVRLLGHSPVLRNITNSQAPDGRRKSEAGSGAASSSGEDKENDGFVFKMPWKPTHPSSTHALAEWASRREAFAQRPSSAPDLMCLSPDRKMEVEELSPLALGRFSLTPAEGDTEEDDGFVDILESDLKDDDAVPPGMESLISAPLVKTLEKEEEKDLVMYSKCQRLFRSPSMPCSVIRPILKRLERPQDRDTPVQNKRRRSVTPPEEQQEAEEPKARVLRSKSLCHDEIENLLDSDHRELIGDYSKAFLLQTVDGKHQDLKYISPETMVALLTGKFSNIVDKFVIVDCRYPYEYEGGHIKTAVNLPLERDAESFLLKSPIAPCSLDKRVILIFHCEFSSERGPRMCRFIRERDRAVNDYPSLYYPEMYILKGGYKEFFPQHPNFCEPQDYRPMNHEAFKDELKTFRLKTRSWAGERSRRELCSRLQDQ

[7] = target: T5, Tyrosine-protein phosphatase non-receptor type 1 (Homo sapiens, UniProt P18031); assay: Inhibition of purified recombinant PTP1B catalytic domain (unknown origin) using pNPP as substrate by spectrophotometry
T5 sequence (P18031 whole entry): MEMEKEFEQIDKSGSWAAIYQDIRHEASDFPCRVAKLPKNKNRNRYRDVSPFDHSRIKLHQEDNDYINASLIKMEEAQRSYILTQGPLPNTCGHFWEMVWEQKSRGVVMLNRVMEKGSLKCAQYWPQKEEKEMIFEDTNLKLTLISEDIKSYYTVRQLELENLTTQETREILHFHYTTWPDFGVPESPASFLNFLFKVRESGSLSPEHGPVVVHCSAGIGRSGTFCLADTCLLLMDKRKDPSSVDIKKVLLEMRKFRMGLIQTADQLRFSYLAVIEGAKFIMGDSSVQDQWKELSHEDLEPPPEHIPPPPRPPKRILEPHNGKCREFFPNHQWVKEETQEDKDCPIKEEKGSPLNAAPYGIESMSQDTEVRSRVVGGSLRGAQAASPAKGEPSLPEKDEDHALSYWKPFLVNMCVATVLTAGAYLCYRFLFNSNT

A549 = assay: Cytotoxicity against human A549 cells by SRB assay; type: functional, cell-based
[8] = target: T6, M-phase inducer phosphatase 2 (Homo sapiens) (UniProt P30305); assay: Inhibition of CDC25B (unknown origin) using pNPP as substrate at 20 ug/ml by spectrophotometry
T6 sequence (whole entry): T4 sequence (P30305 whole entry)

[9] = target: T7, Tyrosine-protein phosphatase non-receptor type 2 (Homo sapiens) (UniProt P17706); assay: Inhibition of TC-PTP (unknown origin) using pNPP as substrate at 20 ug/ml by spectrophotometry
T7 sequence (whole entry): T1 sequence (P17706 whole entry)

SH-SY5Y = assay: Neuroprotective activity against amyloid beta(25 to 35)-induced cell damage in human SH-SY5Y cells assessed as increase in cell viability preincubated at 10 uM 2 hrs prior to challenge by MTT assay relative to control; type: functional
[10] = target: T3, Tyrosine-protein phosphatase non-receptor type 6
Description: Inhibition of SHP1 (unknown origin) using pNPP as substrate by spectrophotometry

Sequence of Receptor-type tyrosine-protein phosphatase F (Homo sapiens) (P10586 whole entry): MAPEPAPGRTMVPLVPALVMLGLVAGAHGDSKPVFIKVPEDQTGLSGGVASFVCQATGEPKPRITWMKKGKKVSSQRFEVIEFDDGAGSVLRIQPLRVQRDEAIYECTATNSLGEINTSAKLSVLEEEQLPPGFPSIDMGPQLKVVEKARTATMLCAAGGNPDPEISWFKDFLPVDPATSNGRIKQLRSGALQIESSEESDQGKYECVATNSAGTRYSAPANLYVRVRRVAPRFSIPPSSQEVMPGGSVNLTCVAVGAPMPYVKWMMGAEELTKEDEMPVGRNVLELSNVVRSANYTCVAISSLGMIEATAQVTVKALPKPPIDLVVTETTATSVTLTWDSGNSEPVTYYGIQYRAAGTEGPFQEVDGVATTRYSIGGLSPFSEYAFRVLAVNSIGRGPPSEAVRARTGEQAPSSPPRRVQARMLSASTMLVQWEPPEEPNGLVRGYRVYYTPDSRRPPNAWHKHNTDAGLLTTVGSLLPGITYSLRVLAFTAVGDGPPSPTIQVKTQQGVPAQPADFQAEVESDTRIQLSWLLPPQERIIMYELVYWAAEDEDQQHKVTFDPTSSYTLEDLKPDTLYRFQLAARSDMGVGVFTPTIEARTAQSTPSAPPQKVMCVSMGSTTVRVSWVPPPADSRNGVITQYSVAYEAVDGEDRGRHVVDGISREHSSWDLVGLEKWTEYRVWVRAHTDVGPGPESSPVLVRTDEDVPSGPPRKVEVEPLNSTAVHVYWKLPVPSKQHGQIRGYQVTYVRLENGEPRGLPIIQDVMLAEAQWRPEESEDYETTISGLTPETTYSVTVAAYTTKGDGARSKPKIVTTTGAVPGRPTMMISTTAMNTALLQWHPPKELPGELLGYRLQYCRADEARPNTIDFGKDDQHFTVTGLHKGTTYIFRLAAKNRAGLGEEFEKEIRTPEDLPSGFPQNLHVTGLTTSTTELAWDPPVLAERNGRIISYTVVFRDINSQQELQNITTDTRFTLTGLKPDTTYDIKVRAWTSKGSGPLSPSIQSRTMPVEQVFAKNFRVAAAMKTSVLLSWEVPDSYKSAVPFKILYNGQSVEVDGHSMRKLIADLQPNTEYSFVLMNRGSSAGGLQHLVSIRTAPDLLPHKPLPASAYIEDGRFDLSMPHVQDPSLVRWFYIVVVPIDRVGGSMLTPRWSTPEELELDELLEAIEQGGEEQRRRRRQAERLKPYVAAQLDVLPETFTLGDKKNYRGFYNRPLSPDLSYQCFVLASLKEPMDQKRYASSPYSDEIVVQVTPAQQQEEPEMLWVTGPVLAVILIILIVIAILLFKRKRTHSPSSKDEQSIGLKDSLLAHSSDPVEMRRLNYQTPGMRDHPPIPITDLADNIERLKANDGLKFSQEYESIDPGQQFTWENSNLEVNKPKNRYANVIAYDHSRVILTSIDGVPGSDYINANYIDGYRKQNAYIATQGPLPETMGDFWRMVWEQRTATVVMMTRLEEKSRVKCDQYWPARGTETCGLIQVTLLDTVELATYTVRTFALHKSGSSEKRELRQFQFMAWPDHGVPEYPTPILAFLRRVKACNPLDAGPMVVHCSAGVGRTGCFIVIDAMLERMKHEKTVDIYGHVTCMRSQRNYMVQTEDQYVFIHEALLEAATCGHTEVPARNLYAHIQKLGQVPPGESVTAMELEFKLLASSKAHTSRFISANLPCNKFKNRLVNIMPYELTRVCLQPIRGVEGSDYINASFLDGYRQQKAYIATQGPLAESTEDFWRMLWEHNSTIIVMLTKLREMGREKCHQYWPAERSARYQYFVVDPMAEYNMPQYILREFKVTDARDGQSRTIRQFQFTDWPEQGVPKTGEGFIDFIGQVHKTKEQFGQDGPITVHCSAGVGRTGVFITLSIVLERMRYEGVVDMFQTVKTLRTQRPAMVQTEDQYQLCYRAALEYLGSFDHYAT
T3 sequence (P29350 whole entry): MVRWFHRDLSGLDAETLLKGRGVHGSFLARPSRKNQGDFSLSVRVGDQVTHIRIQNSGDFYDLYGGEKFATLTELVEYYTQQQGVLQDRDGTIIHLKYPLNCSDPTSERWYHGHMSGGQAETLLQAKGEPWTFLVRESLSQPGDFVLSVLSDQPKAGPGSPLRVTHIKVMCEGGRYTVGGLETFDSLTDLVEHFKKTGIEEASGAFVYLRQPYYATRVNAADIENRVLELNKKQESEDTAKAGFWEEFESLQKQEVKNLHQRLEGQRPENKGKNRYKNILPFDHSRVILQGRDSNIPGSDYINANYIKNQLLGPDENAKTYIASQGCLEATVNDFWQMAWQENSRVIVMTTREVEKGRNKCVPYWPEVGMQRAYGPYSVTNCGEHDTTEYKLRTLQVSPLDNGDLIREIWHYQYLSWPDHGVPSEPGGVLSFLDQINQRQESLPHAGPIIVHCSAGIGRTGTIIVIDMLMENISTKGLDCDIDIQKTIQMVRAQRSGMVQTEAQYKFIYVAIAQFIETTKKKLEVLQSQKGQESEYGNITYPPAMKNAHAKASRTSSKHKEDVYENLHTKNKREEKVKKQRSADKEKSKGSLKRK

Row | Molecule | IC50 [1] | IC50 [2] | inhibition [3] | inhibition [4] | inhibition [5] | IC50 [6] | IC50 [7] | IC50 (A549) | inhibition [8] | inhibition [9] | Activity (SH-SY5Y) | IC50 [10]
1 | CC1=C(C)C(=O)C(CC[C@](C)(O)CCC[C@H](C)CCC[C@H](C)CCCC(C)C)=C(C)C1=O | 45 µM | 35.1 µM | < 50% | < 50% | < 50% | 23.2 µM | 3.85 µM | 85.3 µM |  |  |  | 
2 | COc1cccc2c1C(=O)c1c(O)c3c(c(O)c1C2=O)C[C@@](O)(C(=O)CO)C[C@@H]3O[C@H]1C[C@H](N)[C@H](O)[C@H](C)O1 [DOXORUBICIN] | 0.123 µM |  |  |  |  |  |  |  |  |  |  | 
3 | C=C[C@](O)(CC[C@@H](C)[C@H]1CC[C@H]2[C@@H]3CC=C4C[C@@H](O)CC[C@]4(C)[C@H]3CC[C@]12C)C(C)C | > 100 µM |  | < 50% | < 50% | < 50% |  | 41.7 µM | > 100 µM | < 50% | < 50% |  | 
4 | CC1=C(CCC(=O)OC/C=C(\C)CCC[C@H](C)CCC[C@H](C)CCCC(C)C)C(=O)NC1=O | > 100 µM | 12.6 µM | < 50% | < 50% | < 50% | 42.9 µM | 2.3 µM | > 100 µM |  |  |  | 
5 | CC(=O)[C@]1(O)C(C)=C(C)C(=O)[C@@]12CC[C@](C)(CCC[C@H](C)CCC[C@H](C)CCCC(C)C)O2 | 67.4 µM |  |  |  |  |  |  | > 100 µM |  |  |  | 
6 | CC1(C)CC[C@]2(C(=O)O)CC[C@]3(C)C(=CC[C@@H]4[C@@]5(C)CC[C@H](O)C(C)(C)[C@@H]5CC[C@]43C)[C@@H]2C1 [OLEANOLIC_ACID] |  |  | < 50% | < 50% | < 50% | 0.98 µM |  |  |  |  |  | 
7 | CC1=C(C)C(=O)[C@@]2(CC[C@@](C)(CCC[C@H](C)CCC[C@H](C)CCCC(C)C)O2)[C@@](C)(O)C1=O | > 100 µM |  | < 50% | < 50% | < 50% |  | 11 µM | > 100 µM | < 50% | < 50% | 13.85% | 
8 | CC(=O)OC/C=C(\C)CCC[C@H](C)CCC[C@H](C)CCCC(C)C | > 100 µM |  | < 50% | < 50% | < 50% |  | 50 µM | > 100 µM | < 50% | < 50% |  | 
9 | O=C(O[C@@H]1Cc2c(O)cc(O)cc2O[C@@H]1c1cc(O)c(O)c(O)c1)c1cc(O)c(O)c(O)c1 [EPIGALOCATECHIN GALLATE] |  |  |  |  |  |  |  |  |  |  | 16.57% | 
10 | CC(=O)/C(=C/C[C@@H](C)[C@H]1CC[C@H]2[C@@H]3CC=C4C[C@@H](O)CC[C@]4(C)[C@H]3CC[C@]12C)C(C)C | > 100 µM |  | < 50% | < 50% | < 50% |  | 3.8 µM | > 100 µM | < 50% | < 50% | 11.31% | 
11 | CC1=CC(=O)OC1CC[C@H](C)CCC[C@H](C)CCCC(C)C (stereo not given in full) | 49.3 µM |  |  |  |  |  |  |  |  |  |  | 
12 | C/C(=C\CO)CCC[C@H](C)CCC[C@H](C)CCCC(C)C [TRANS-PHYTOL] | > 100 µM |  | < 50% | < 50% | < 50% |  | 32.6 µM | > 100 µM | < 50% | < 50% |  | 
13 | CC(C)C(=O)/C=C/[C@@H](C)[C@H]1CC[C@H]2[C@@H]3CC=C4C[C@@H](O)CC[C@]4(C)[C@H]3CC[C@]12C | > 100 µM |  | < 50% | < 50% | < 50% |  | 50 µM | > 100 µM | < 50% | < 50% | 15.98% | 
14 | C=C[C@@](O)(CC[C@@H](C)[C@H]1CC[C@H]2[C@@H]3CC=C4C[C@@H](O)CC[C@]4(C)[C@H]3CC[C@]12C)C(C)C | > 100 µM |  | < 50% | < 50% | < 50% |  | 10.3 µM | > 100 µM | < 50% | < 50% |  | 
15 | SODIUM ORTHOVANAD |  |  |  |  |  |  |  |  |  |  |  | 16.5 µM
